Source: patent publication US7749730B2, “High throughput screening assay for the TRPM5 ion channel” (Redpoint Bio Corporation, priority 2005, dated 2010)

Columns and labels:
Assay type in all cases: cell-based
TRPM5 [1] = target: T1, TRPM5 (Homo sapiens, UniProt Q9NZQ8); test: Membrane potential assay in transiently TRPM5-transfected HEK 293 cells (FLEXstation); set-up: the full length hTRPM5 was amplified by PCR using GC Melt; expressed in transfected cells; host or cells: HEK 293 (ATCC), transient transfection with Lipofectamine 2000; settings: for TRPM5 response to agonist (relative fluorescence): within the first 30 seconds of agonist addition, FMP dye
T1 sequence (Q9NZQ8 1-1165): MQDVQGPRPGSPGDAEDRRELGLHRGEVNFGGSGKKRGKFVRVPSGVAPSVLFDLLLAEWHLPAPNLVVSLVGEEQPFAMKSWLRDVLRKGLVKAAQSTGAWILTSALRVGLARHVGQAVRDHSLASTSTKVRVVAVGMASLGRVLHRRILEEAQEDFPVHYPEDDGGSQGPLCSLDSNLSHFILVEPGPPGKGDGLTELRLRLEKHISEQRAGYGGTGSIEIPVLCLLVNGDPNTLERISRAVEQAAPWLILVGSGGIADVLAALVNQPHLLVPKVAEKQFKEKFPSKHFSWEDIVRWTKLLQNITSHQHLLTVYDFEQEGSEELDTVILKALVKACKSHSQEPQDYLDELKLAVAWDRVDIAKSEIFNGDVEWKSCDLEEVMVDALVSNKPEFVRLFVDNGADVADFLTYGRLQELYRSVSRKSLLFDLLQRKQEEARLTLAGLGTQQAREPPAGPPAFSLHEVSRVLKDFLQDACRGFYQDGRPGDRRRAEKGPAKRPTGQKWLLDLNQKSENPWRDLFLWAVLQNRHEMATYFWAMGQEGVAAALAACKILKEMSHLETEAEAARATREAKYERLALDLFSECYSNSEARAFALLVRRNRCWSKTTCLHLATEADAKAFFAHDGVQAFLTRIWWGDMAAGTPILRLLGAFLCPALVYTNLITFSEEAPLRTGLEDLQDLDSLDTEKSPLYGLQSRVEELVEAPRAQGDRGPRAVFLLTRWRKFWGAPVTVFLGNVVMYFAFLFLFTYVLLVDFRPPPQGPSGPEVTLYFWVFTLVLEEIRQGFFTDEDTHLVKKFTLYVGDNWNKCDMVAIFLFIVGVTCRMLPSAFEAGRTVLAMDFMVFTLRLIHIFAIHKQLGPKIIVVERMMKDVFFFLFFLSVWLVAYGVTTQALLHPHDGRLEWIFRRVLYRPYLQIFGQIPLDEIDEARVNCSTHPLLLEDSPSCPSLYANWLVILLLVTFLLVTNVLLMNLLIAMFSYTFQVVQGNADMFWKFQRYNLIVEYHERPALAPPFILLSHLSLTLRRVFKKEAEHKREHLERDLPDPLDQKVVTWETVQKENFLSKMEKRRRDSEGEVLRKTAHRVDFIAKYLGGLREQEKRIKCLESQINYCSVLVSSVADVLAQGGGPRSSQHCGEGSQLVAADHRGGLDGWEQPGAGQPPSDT
Experimental: As described in greater detail below, HEK 293 cells, transiently transfected with a plasmid bearing the human TRPM5 gene, were used to develop the high throughput screening assay. Indirect measurement of the changes in Na^+ ions within the HEK 293 cells were made using a FMP dye and stimulation of the cells using calcium activating agents.
1.0×10^6 HEK 293 cells (ATCC) were plated in each well of a 6-well tissue culture dish overnight. The following day, cells were transfected with 4 μg of a pcDNA3.2 vector containing TRPM5 cDNA and 8 μl of Lipofectamine 2000 (Invitrogen), according to the manufacturer's protocol, and incubated overnight. The following day, transfected cells were trypsinized and seeded into 96-well black, clear bottom, poly-D-lysine plates (Corning) at a density of 70,000 cells/well in a 100 μl volume and incubated in a 37° C./5% CO2 incubator overnight.
Once the expression of TRPM5 was confirmed in the HEK cells, 100 μl of the Blue or Red FMP dye (Molecular Devices) was added to each well of plates seeded with the transiently transfected cells. The plate was then incubated in a 37° C./5% CO2 incubator for 1 hour. The plate was read in a FLEXStation microplate reader (Molecular Devices) with an excitation of 530 nm and an emission of 565 nm. The fluorescence was monitored for 3 minutes upon exposure of the cells to a calcium activating agent (carbachol, thrombin peptide or ATP).

TRPM5 [2] = target: T1, TRPM5; test: TRPM5 membrane potential dye assay (FLIPR), cells stimulated with ATP; set-up: the full length hTRPM5 was amplified by PCR using GC Melt; expressed in transfected cells; settings: ATP stimulus
Experimental: TRPM5 stably expressed in HEK cells was analyzed for its ability to respond to different concentrations of several GPCR agonists. The assay was performed on a FLIPR® using the excitation 510-545 nm and emission 565-625 nm filter sets. Assay plates containing stably expressing HEK cells were loaded with 1× Membrane Potential Assay Dye Red (Molecular Devices) for one hour in a 37° C. and 5% CO2 incubator. The plates were then removed from the incubator and equilibrated to room temperature for 15 minutes before reading on the FLIPR®. The plates were read on the FLIPR® for a total of 3 minutes. Baseline fluorescence was obtained on the FLIPR® for 10 seconds followed by addition of each agonist by the FLIPR® and read for an additional 2 minutes and 50 seconds. […] The values on the graph represent the difference in the maximum minus the minimum fluorescence upon agonist addition. Individual clones are represented by clone number, while the pool of clones represents the sum of all cells that were resistant to selection. In all cases, clone 1 gave the strongest response to all 3 agonists (ATP, carbachol, and thrombin peptide, FIGS. 5A-5C, respectively). Clone 5 and pooled clones generated a lower response in comparison to clone 1. However, both the clone 5 and pool responses were a minimum 3-fold higher than fluorescence in non-transfected cells.
Specificity of potential activating compounds may be identified using suboptimal concentrations of agents that increase intracellular calcium levels. In this type of assay, rather than using a high concentration of, for example carbachol, a reduced concentration is added to TRPM5-expressing cells with or without an additional test compound. Enhancers of TRPM5 activity are those test compounds that increase the fluorescent intensity in reduced carbachol treated cells, to the level seen in cells treated to a high dose.
A carbachol dose response curve was generated for the TRPM5 expressing cells so that the suboptimal concentration range could be determined. […]

KCl response = test: KCl counterscreen (membrane potential dye, 20 mM KCl stimulus); settings: TRPM5-expressing cells
Experimental: KCl activates a number of ion channels, but not TRPM5. Therefore, KCl can be used as a counterscreen to identify modulating compounds specific for TRPM5.
(§1) The ideal blocker would block TRPM5 but not other channels. The TRPM5 assay is conducted as described in Example 3, utilizing a membrane potential dye. A test compound is added, and the cells are then stimulated with ATP to trigger the channel, leading to a dye response. The process is shown schematically in FIG. 7. The KCl counterscreen is performed as described in Example 3, with identical cells, pretreated with the same compound, but the stimulus was 20 mM KCl, not ATP. KCl stimulated and unstimulated responses are used as controls. […] An additional specificity assay utilizes a Ca++ flux dye (Calcium 3 Dye, Part No. R8091) to determine whether or not the compound interferes with agonist-induced Ca++ flux response.

[3] = test system: agonist-induced Ca++ flux response; test: Ca++ flux assay (Calcium 3 Dye)
Experimental: as §1

TRPM5 response to agonist (relative fluorescence) (TRPM5 [1]) | Compound | inhibition of the TRPM5 response (TRPM5 [2]) | effect on KCl response (KCl response) | effect on Ca++ flux response [3] | fluorescence over background (TRPM5 [1]; versus mock treated cells)
strong spike in relative fluorescence | Nc1ncnc2c1ncn2[C@@H]1O[C@H](COP(=O)(O)OP(=O)(O)OP(=O)(O)O)[C@@H](O)[C@H]1O [ATP, adenosine triphosphate] | – | – | – | –
– | NC1C(=O)/C(=C\c2cc([N+](=O)[O-])cc([N+](=O)[O-])c2O)SC1=S (centres unmarked) [Compound F001344,A3] | inhibits TRPM5 | inhibits TRPM5, but also the KCl responses | – | –
– | O=c1[nH]c(SCc2ccccc2)nc(O)c1C(c1ccccc1)c1ccccc1 [Compound F0013488,C13] | inhibits TRPM5 | – | activates the Ca++ flux response | –
strong spike in relative fluorescence | C[N+](C)(C)CCOC(N)=O [carbachol] | – | – | – | –
– | C=CCOc1ccc(/C=N/NC(=O)CSCc2cccc(Br)c2)cc1OC [compound 1] | dose responsive inhibition of the TRPM5 response | does not alter KCl or Ca++ responses | does not alter KCl or Ca++ responses | –

Compound | TRPM5 response to agonist (relative fluorescence) (TRPM5 [1]) | inhibition of the TRPM5 response (TRPM5 [2]) | effect on KCl response (KCl response) | effect on Ca++ flux response [3] | fluorescence over background (TRPM5 [1]; versus mock treated cells)
thrombin | strong spike in relative fluorescence | – | – | – | greater than 4 fold
